# Measured values published in patent publication US9738634B2, “Heterocyclic amide compound and herbicide” (SYNGENTA PARTICIPATIONS AG, priority 2013, dated 2017).
# Experiments:
# Type in all cases: in vivo
# barnyard grass [1] = assay: Test Example 1: weedkilling efficacy, preemergent weed treatment in the submerged state; A: barnyard grass; settings: treatment dosage 252 g/ha
# In short: (§1)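 Pots of alluvial soil flooded 4 cm deep, sown with barnyard grass, bulrush and oval-leafed pondweed and transplanted with 2.5-leaf rice. Emulsified compound applied to the water surface on sowing day at stated g/ha; greenhouse 25–30 °C, effects assessed 3 weeks after treatment.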
# bulrush [2] = assay: Test Example 1: weedkilling efficacy, preemergent weed treatment in the submerged state; B: bulrush; settings: treatment dosage 252 g/ha
# In short: as §1
# oval-leafed pondweed [3] = assay: Test Example 1: weedkilling efficacy, preemergent weed treatment in the submerged state; C: oval-leafed pondweed; settings: treatment dosage 252 g/ha
# In short: as §1
# transplanted rice = assay: Test Example 1: preemergent weed treatment in the submerged state, effect on crop; a: transplanted rice; settings: treatment dosage 252 g/ha
# In short: as §1
# barnyard grass [4] = assay: Test Example 2: weedkilling efficacy, growth period weed treatment in the submerged state; A: barnyard grass; settings: treatment dosage 252 g/ha
# In short: (§2)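 Barnyard grass, bulrush and oval-leafed pondweed sown in alluvial soil under 4 cm flooding, greenhouse 25 to 30° C. At 1-2 leaf stage, water-diluted emulsion applied to the water surface at stated g/ha dosages; effects scored 3 weeks later.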
# bulrush [5] = assay: Test Example 2: weedkilling efficacy, growth period weed treatment in the submerged state; B: bulrush; settings: treatment dosage 252 g/ha
# In short: as §2
# oval-leafed pondweed [6] = assay: Test Example 2: weedkilling efficacy, growth period weed treatment in the submerged state; C: oval-leafed pondweed; settings: treatment dosage 252 g/ha
# In short: as §2
# crabgrass [7] = assay: Test Example 3: weedkilling efficacy through soil treatment; D: crabgrass; settings: treatment dosage 315 g/ha
# In short: (§3)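 Crop and weed responses were judged three weeks after a uniform surface spray of the water-diluted emulsion at the given g/ha rate. Seeds sat beneath about 1.5 cm of sterilized diluvial soil, and boxes stood in a greenhouse at 25 to 30° C.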
# green foxtail [8] = assay: Test Example 3: weedkilling efficacy through soil treatment; E: green foxtail; settings: treatment dosage 315 g/ha
# In short: as §3
# black-grass [9] = assay: Test Example 3: weedkilling efficacy through soil treatment; H: black-grass; settings: treatment dosage 315 g/ha
# In short: as §3
# Italian ryegrass [10] = assay: Test Example 3: weedkilling efficacy through soil treatment; I: Italian ryegrass; settings: treatment dosage 315 g/ha
# In short: as §3
# Indian mallow [11] = assay: Test Example 3: weedkilling efficacy through soil treatment; K: Indian mallow; settings: treatment dosage 315 g/ha
# In short: as §3
# redroot pigweed [12] = assay: Test Example 3: weedkilling efficacy through soil treatment; L: redroot pigweed; settings: treatment dosage 315 g/ha
# In short: as §3
# fig-leafed goosefoot [13] = assay: Test Example 3: weedkilling efficacy through soil treatment; M: fig-leafed goosefoot; settings: treatment dosage 315 g/ha
# In short: as §3
# chickweed [14] = assay: Test Example 3: weedkilling efficacy through soil treatment; N: chickweed; settings: treatment dosage 315 g/ha
# In short: as §3
# birds-eye speedwell [15] = assay: Test Example 3: weedkilling efficacy through soil treatment; p: birds-eye speedwell; settings: treatment dosage 315 g/ha
# In short: as §3
# directly sown rice [16] = assay: Test Example 3: soil treatment, effect on crop; b: directly sown rice; settings: treatment dosage 315 g/ha
# In short: as §3
# corn [17] = assay: Test Example 3: soil treatment, effect on crop; c: corn; settings: treatment dosage 315 g/ha
# In short: as §3
# soybean [18] = assay: Test Example 3: soil treatment, effect on crop; d: soybean; settings: treatment dosage 315 g/ha
# In short: as §3
# wheat [19] = assay: Test Example 3: soil treatment, effect on crop; e: wheat; settings: treatment dosage 315 g/ha
# In short: as §3
# beet [20] = assay: Test Example 3: soil treatment, effect on crop; f: beet; settings: treatment dosage 315 g/ha
# In short: as §3
# crabgrass [21] = assay: Test Example 4: weedkilling efficacy by foliar treatment; D: crabgrass; settings: treatment dosage 315 g/ha
# Method: (§4) Testing of Weedkilling Efficacy by Foliar Treatment
# (§5) Sterilized diluvial soil was introduced into 21 cm long, 13 cm wide, 7 cm deep plastic boxes, and seeds of crabgrass, green foxtail, barnyard grass, wild oat, black-grass, Italian ryegrass, common wind-grass, Indian mallow, redroot pigweed, fig-leafed goosefoot, chickweed, catchweed, birds-eye speedwell, corn, soybean, rice, wheat, beet and rapeseed were each spot-sown, and covered with about 1.5 cm of soil, then the plants were grown in a greenhouse at 25 to 30° C.
# (§6) After they had grown for 14 days, emulsions of compounds of the present invention prepared according to compounding example 2 were diluted with water to give the specified dosages, and applied uniformly onto the stem and leaf parts with a small sprayer. 3 weeks after the pesticide treatment the effect on each type of plant was investigated on the basis of the assessment criteria of test example 1.
# (§7) A: barnyard grass, B: bulrush, C: oval-leafed pondweed, D: crabgrass, E: green foxtail, F: barnyard grass, G: wild oat, H: black-grass, I: Italian ryegrass, J: common wind-grass, K: Indian mallow, L: redroot pigweed, M: fig-leafed goosefoot, N: chickweed, O: catchweed, p: birds-eye speedwell, a: transplanted rice, b: directly sown rice, c: corn, d: soybean, e: wheat, f: beet, g: rapeseed
# (§8) Further, pesticide dosage (g/ha) indicates the concentration regulated such that treatment was with only the stated number of grams (g), when calculated per hectare (ha).
# green foxtail [22] = assay: Test Example 4: weedkilling efficacy by foliar treatment; E: green foxtail; settings: treatment dosage 315 g/ha
# Method: as §4, §5, §6, §7, §8
# black-grass [23] = assay: Test Example 4: weedkilling efficacy by foliar treatment; H: black-grass; settings: treatment dosage 315 g/ha
# Method: as §4, §5, §6, §7, §8
# Italian ryegrass [24] = assay: Test Example 4: weedkilling efficacy by foliar treatment; I: Italian ryegrass; settings: treatment dosage 315 g/ha
# Method: as §4, §5, §6, §7, §8
# Indian mallow [25] = assay: Test Example 4: weedkilling efficacy by foliar treatment; K: Indian mallow; settings: treatment dosage 315 g/ha
# Method: as §4, §5, §6, §7, §8
# redroot pigweed [26] = assay: Test Example 4: weedkilling efficacy by foliar treatment; L: redroot pigweed; settings: treatment dosage 315 g/ha
# Method: as §4, §5, §6, §7, §8
# fig-leafed goosefoot [27] = assay: Test Example 4: weedkilling efficacy by foliar treatment; M: fig-leafed goosefoot; settings: treatment dosage 315 g/ha
# Method: as §4, §5, §6, §7, §8
# chickweed [28] = assay: Test Example 4: weedkilling efficacy by foliar treatment; N: chickweed; settings: treatment dosage 315 g/ha
# Method: as §4, §5, §6, §7, §8
# catchweed = assay: Test Example 4: weedkilling efficacy by foliar treatment; O: catchweed; settings: treatment dosage 315 g/ha
# Method: as §4, §5, §6, §7, §8
# birds-eye speedwell [29] = assay: Test Example 4: weedkilling efficacy by foliar treatment; p: birds-eye speedwell; settings: treatment dosage 315 g/ha
# Method: as §4, §5, §6, §7, §8
# directly sown rice [30] = assay: Test Example 4: foliar treatment, effect on crop; b: directly sown rice; settings: treatment dosage 315 g/ha
# Method: as §4, §5, §6, §7, §8
# corn [31] = assay: Test Example 4: foliar treatment, effect on crop; c: corn; settings: treatment dosage 315 g/ha
# Method: as §4, §5, §6, §7, §8
# soybean [32] = assay: Test Example 4: foliar treatment, effect on crop; d: soybean; settings: treatment dosage 315 g/ha
# Method: as §4, §5, §6, §7, §8
# wheat [33] = assay: Test Example 4: foliar treatment, effect on crop; e: wheat; settings: treatment dosage 315 g/ha
# Method: as §4, §5, §6, §7, §8
# beet [34] = assay: Test Example 4: foliar treatment, effect on crop; f: beet; settings: treatment dosage 315 g/ha
# Method: as §4, §5, §6, §7, §8
smiles,measurement,setting,value
CC1=C(c2ccsc2)C(=O)N(C(C)(C)C(=O)Nc2cccc(Cl)n2)CO1 [B-2-05],A (barnyard grass) weedkilling efficacy grade,barnyard grass [1],"5 (weed kill ratio 90% or more, (practically complete withering))"
same,B (bulrush) weedkilling efficacy grade,bulrush [2],"5 (weed kill ratio 90% or more, (practically complete withering))"
same,C (oval-leafed pondweed) weedkilling efficacy grade,oval-leafed pondweed [3],"5 (weed kill ratio 90% or more, (practically complete withering))"
same,a (transplanted rice) effect on crop grade,transplanted rice,0 (weed kill ratio 5% or less (practically no effect))
same,A (barnyard grass) weedkilling efficacy grade,barnyard grass [4],"5 (weed kill ratio 90% or more, (practically complete withering))"
same,B (bulrush) weedkilling efficacy grade,bulrush [5],"5 (weed kill ratio 90% or more, (practically complete withering))"
same,C (oval-leafed pondweed) weedkilling efficacy grade,oval-leafed pondweed [6],"5 (weed kill ratio 90% or more, (practically complete withering))"
same,D (crabgrass) weedkilling efficacy grade,crabgrass [7],"5 (weed kill ratio 90% or more, (practically complete withering))"
same,E (green foxtail) weedkilling efficacy grade,green foxtail [8],"5 (weed kill ratio 90% or more, (practically complete withering))"
same,H (black-grass) weedkilling efficacy grade,black-grass [9],"5 (weed kill ratio 90% or more, (practically complete withering))"
same,I (Italian ryegrass) weedkilling efficacy grade,Italian ryegrass [10],"5 (weed kill ratio 90% or more, (practically complete withering))"
same,K (Indian mallow) weedkilling efficacy grade,Indian mallow [11],"1 (weed kill ratio 5% or more, less than 20%)"
same,L (redroot pigweed) weedkilling efficacy grade,redroot pigweed [12],"4 (weed kill ratio 70% or more, less than 90%)"
same,M (fig-leafed goosefoot) weedkilling efficacy grade,fig-leafed goosefoot [13],"5 (weed kill ratio 90% or more, (practically complete withering))"
same,N (chickweed) weedkilling efficacy grade,chickweed [14],"5 (weed kill ratio 90% or more, (practically complete withering))"
same,P (birds-eye speedwell) weedkilling efficacy grade,birds-eye speedwell [15],"5 (weed kill ratio 90% or more, (practically complete withering))"
same,b (directly sown rice) effect on crop grade,directly sown rice [16],"3 (weed kill ratio 40% or more, less than 70%)"
same,c (corn) effect on crop grade,corn [17],0 (weed kill ratio 5% or less (practically no effect))
same,d (soybean) effect on crop grade,soybean [18],0 (weed kill ratio 5% or less (practically no effect))
same,e (wheat) effect on crop grade,wheat [19],0 (weed kill ratio 5% or less (practically no effect))
same,f (beet) effect on crop grade,beet [20],"5 (weed kill ratio 90% or more, (practically complete withering))"
same,D (crabgrass) weedkilling efficacy grade,crabgrass [21],"5 (weed kill ratio 90% or more, (practically complete withering))"
same,E (green foxtail) weedkilling efficacy grade,green foxtail [22],"5 (weed kill ratio 90% or more, (practically complete withering))"
same,H (black-grass) weedkilling efficacy grade,black-grass [23],"5 (weed kill ratio 90% or more, (practically complete withering))"
same,I (Italian ryegrass) weedkilling efficacy grade,Italian ryegrass [24],"5 (weed kill ratio 90% or more, (practically complete withering))"
same,K (Indian mallow) weedkilling efficacy grade,Indian mallow [25],"3 (weed kill ratio 40% or more, less than 70%)"
same,L (redroot pigweed) weedkilling efficacy grade,redroot pigweed [26],"3 (weed kill ratio 40% or more, less than 70%)"
same,M (fig-leafed goosefoot) weedkilling efficacy grade,fig-leafed goosefoot [27],"4 (weed kill ratio 70% or more, less than 90%)"
same,N (chickweed) weedkilling efficacy grade,chickweed [28],"4 (weed kill ratio 70% or more, less than 90%)"
same,O (catchweed) weedkilling efficacy grade,catchweed,"4 (weed kill ratio 70% or more, less than 90%)"
same,P (birds-eye speedwell) weedkilling efficacy grade,birds-eye speedwell [29],"5 (weed kill ratio 90% or more, (practically complete withering))"
same,b (directly sown rice) effect on crop grade,directly sown rice [30],"4 (weed kill ratio 70% or more, less than 90%)"
same,c (corn) effect on crop grade,corn [31],"4 (weed kill ratio 70% or more, less than 90%)"
same,d (soybean) effect on crop grade,soybean [32],"3 (weed kill ratio 40% or more, less than 70%)"
same,e (wheat) effect on crop grade,wheat [33],"3 (weed kill ratio 40% or more, less than 70%)"
same,f (beet) effect on crop grade,beet [34],"4 (weed kill ratio 70% or more, less than 90%)"
